The values below come from US20050032807A1, “Methods of treating inflammatory diseases with ammonium salts of ornitihine derivatives” (priority 2003, published 2005).

The conditions of series [1]: lyophilization of the dilute ammonium hydroxide solution to the ammonium salt.
In series [2] the target is T1, dihydrofolate reductase (DHFR) (Mus musculus, UniProt P00375).
T1 sequence (P00375 1-187): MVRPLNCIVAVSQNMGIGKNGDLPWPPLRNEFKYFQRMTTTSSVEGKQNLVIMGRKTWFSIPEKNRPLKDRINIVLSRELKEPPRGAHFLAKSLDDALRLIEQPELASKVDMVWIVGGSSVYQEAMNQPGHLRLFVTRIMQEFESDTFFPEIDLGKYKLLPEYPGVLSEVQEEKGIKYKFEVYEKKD
Conditions: Rosowsky et al., J. Med. Chem. 29, 655-660 (1986); cited from earlier work.

In series [3] the test system is folylpolyglutamate synthetase (FPGS). To be noted: Rosowsky et al., J. Med. Chem. 29, 655-660 (1986); cited from earlier work.
The next series has as its system cell growth in culture. To be noted: Rosowsky et al., J. Med. Chem. 29, 655-660 (1986); cited from earlier work.

With `N.N.Nc1nc(N)c2nc(CNc3ccc(C(=O)N[C@@H](CCCNC(=O)c4ccccc4C(=O)O)C(=O)O)cc3)cnc2n1` [compound 8, N^α-(4-Amino-4-deoxypteroyl)N^δ-hemiphthaloyl-L-ornithine ammonium salt], in series [1], the product decomposition entry is listed as “minimal”.
In the case of `NCCC[C@H](NC(=O)c1ccc(NCc2cnc3nc(N)nc(N)c3n2)cc1)C(=O)O` [APA-L-Orn, N^α-(4-amino-4-deoxypteroyl)-L-ornithine], the “inhibition of dihydrofolate reductase (DHFR)” value in series [2] is “potent inhibitor”. In addition, in series [3], the “inhibition of folylpolyglutamate synthetase (FPGS)” value is listed as “potent inhibitor”. The “inhibition of cell growth in culture” value in the series with cell growth in culture was “relatively inactive”.
